These results are taken from ChEMBL document CHEMBL2417370, “The effect of novel [3-fluoro-(2-phosphonoethoxy)propyl]purines on the inhibition of Plasmodium falciparum, Plasmodium vivax and human hypoxanthine-guanine-(xanthine) phosphoribosyltransferases” (Eur J Med Chem, 2013).

One assay deals with Hepatitis C virus. Description: Antiviral activity against HCV. The format is functional, organism-based. As to conditions: Hepacivirus hominis.
Another assay has as its system Bordetella pertussis. Kind of assay: Effect on Bordetella pertussis adenylyl cyclase.
In the next assay the test system is Maize streak virus. Kind of assay: Antiviral activity against MSV. The format is functional.
Assay [1] relates to Human immunodeficiency virus. Description: Antiviral activity against HIV. It is filed as functional, organism-based.
Assay [2] has as its target T1, Hypoxanthine-guanine phosphoribosyltransferase (Homo sapiens, UniProt P00492).
T1 sequence (P00492 whole entry): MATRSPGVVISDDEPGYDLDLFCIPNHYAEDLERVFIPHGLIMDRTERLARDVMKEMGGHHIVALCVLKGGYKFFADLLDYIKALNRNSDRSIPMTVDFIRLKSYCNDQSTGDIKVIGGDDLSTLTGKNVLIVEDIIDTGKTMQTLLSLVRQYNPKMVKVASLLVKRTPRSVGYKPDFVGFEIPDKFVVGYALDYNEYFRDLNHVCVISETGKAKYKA
Kind of assay: Inhibition of recombinant human HGPRT expressed in Escherichia coli Sphi606 cells by spectrophotometric analysis.

Assay [3] can be described thus: Inhibition of recombinant Plasmodium falciparum HGXPRT expressed in Escherichia coli Sphi606 cells by spectrophotometric analysis.
Assay [4] in a line: Inhibition of recombinant Plasmodium vivax HGXPRT expressed in Escherichia coli by spectrophotometric analysis.

Active and inactive are the calls of the source. The rule behind the calls is not given here.

Consider `Nc1ncnc2c1ncn2CC(CF)OCCP(=O)(O)O` (stereo unspecified), for which the result (with Hepatitis C virus; in the assay on Bordetella pertussis; in the assay on Maize streak virus; in assay [1]) was inactive.

The Ki is a dissociation constant, usually derived from enzyme kinetics or from competition with a known ligand. In the case of `Nc1nc(O)c2ncn(C[C@@H](CF)OCP(=O)(O)O)c2n1`, the Ki in assay [2], in assay [3] and in assay [4] was ≥ 250 µM each time.

`O=c1[nH]cnc2c1ncn2C[C@H](CF)OCCP(=O)(O)O`: the Ki in assay [2], in assay [3] and in assay [4] was ≥ 200 µM throughout. The outcome (in the assay with Hepatitis C virus; with Bordetella pertussis; with Maize streak virus; in assay [1]) was inactive.

With `Nc1nc(NC2CC2)c2ncn(CC(CF)OCCP(=O)(O)O)c2n1` (stereo unspecified), the result (with Hepatitis C virus; in the assay on Bordetella pertussis; in the assay on Maize streak virus; in assay [1]) was inactive.

With `O=c1[nH]cnc2c1ncn2C[C@@H](CF)OCCP(=O)(O)O`, the figures for the Ki in assay [2], in assay [3] and in assay [4] were 1.6 µM, ≥ 300 µM and ≥ 300 µM, respectively. The outcome (in the assay on Hepatitis C virus; in the assay with Bordetella pertussis; in the assay on Maize streak virus; in assay [1]) was inactive.

In the case of `Nc1nc2c(ncn2C[C@H](CF)OCCP(=O)(O)O)c(=O)[nH]1`, the Ki amounted to 4.7 µM in assay [2], 1 µM in assay [3] and 29 µM in assay [4]. Moreover, the outcome (in the assay on Hepatitis C virus; in the assay on Bordetella pertussis; with Maize streak virus; in assay [1]) was inactive.

As for `O=c1[nH]cnc2c1ncn2CC(CF)OCCP(=O)(O)O` (racemic), the Ki in assay [2] is 5.4 µM; in assay [3] it was ≥ 200 µM; in assay [4], ≥ 100 µM. Further, the outcome (with Hepatitis C virus; in the assay on Bordetella pertussis; in the assay on Maize streak virus; in assay [1]) was inactive.

In the case of `Nc1nc(N)c2ncn(CC(CF)OCCP(=O)(O)O)c2n1` (stereo unspecified), the result (in the assay with Hepatitis C virus; with Bordetella pertussis; with Maize streak virus; in assay [1]) was inactive.

With `Nc1nc2c(ncn2C[C@@H](CF)OCCP(=O)(O)O)c(=O)[nH]1`, the Ki amounted to 0.1 µM in assay [2], 1.2 µM in assay [3] and 3.4 µM in assay [4]. Also, the result (in the assay with Hepatitis C virus; with Bordetella pertussis; with Maize streak virus; in assay [1]) was inactive.

Consider `O=c1[nH]cnc2c1ncn2C[C@H](CF)OCP(=O)(O)O`, for which the Ki in assay [2] was ≥ 200 µM; in assay [3] it was 63 µM; in assay [4] it was ≥ 200 µM.

With `Nc1nc(O)c2ncn(C[C@H](CF)OCP(=O)(O)O)c2n1`, the inhibitory constant (Ki) in assay [2], in assay [3] and in assay [4] was ≥ 300 µM each time.

On to `O=c1[nH]cnc2c1ncn2C[C@@H](CF)OCP(=O)(O)O`, for which the Ki was ≥ 250 µM in assay [2], 13 µM in assay [3] and ≥ 250 µM in assay [4].

With `Nc1nc2c(ncn2CC(CF)OCCP(=O)(O)O)c(=O)[nH]1` (racemic), the Ki in assay [2] turned out to be 3.7 µM; in assay [3], 1 µM; in assay [4] it was 7 µM. Besides, the result (in the assay with Hepatitis C virus; with Bordetella pertussis; in the assay with Maize streak virus; in assay [1]) was inactive.
